# Reference: patent US20250375455A1 (priority 2022, published 2025)
# Counter-ions that a name gives are not always drawn. Like-named read-outs stand apart in the source and are kept apart here.
# What was measured:
# Assay in all cases: microbe, parasite or virus in culture
# [1] = system: M. bovis; assay type: cell-based, Mycobacterium bovis; conditions: for MIC: Mycobacterium tuberculosis variant bovis
# [2] = system: Mtb-lineage4; assay type: cell-based, Mycobacterium tuberculosis; conditions: for direct inhibition of growth: Mtb-lineage4, in-vitro, 5, 10 and 50 μM, over 20 days
# [3] = system: Maf-lineage5; assay type: cell-based, Mycobacterium africanum; conditions: for direct inhibition of growth: Maf-lineage5, in-vitro, 5, 10 and 50 μM, over 20 days
# [4] = system: Mtb-lineage2; assay type: cell-based, Mycobacterium tuberculosis; conditions: for direct inhibition of growth: Mtb-lineage2, in-vitro, 5, 10 and 50 μM, over 20 days; for MIC / IC50: Mycobacterium tuberculosis
# [5] = system: Maf-lineage6; assay type: cell-based, Mycobacterium africanum; conditions: for direct inhibition of growth: Maf-lineage6, in-vitro, 5, 10 and 50 μM, over 20 days; for MIC: Mycobacterium tuberculosis
compound,measurement,setting,value
"Cc1ccc(NC(=O)c2ccc(CN3CCN(C)CC3)cc2)cc1Nc1nccc(-c2cccnc2)n1 [Imatinib, Imatinib mesylate]",direct inhibition of growth,[1],directly restricted the growth
same,susceptibility to direct inhibition,[1],more susceptible to direct inhibition
same,MIC,[1]; 240 h,8.39 µM
same,MIC,[1]; 288 h,21.1 µM
same,MIC,[1]; 312 h,25.6 µM
same,MIC,[1]; 336 h,30.3 µM
same,MIC,[1]; 360 h,35.2 µM
same,MIC,[1]; […],16.3 µM
same,susceptibility to direct inhibition,"[2]; Example 4, Mtb-lineage4, concentrations up to 200 μM",more susceptible to direct inhibition
same,MIC,"[2]; Mtb-lineage4, Day 11",Unstable
same,MIC,"[2]; Mtb-lineage4, Day 12",Unstable
same,MIC,"[2]; Mtb-lineage4, Day 13",Unstable
same,MIC,"[2]; Mtb-lineage4, Day 14",Unstable
same,direct inhibition of growth,[2],not
same,MIC,"[2]; Mycobacterium tuberculosis, 240 h, Mtb-lineage4, Day 10, read-out: MIC",98.8 µM
same,MIC,"[3]; 240 h, Maf-lineage5, Day 10",58.1 µM
same,MIC,"[3]; 288 h, Maf-lineage5, Day 12",60.8 µM
same,MIC,"[3]; 312 h, Maf-lineage5, Day 13",62 µM
same,MIC,"[3]; 336 h, Maf-lineage5, Day 14",63.4 µM
same,MIC,"[3]; 360 h, Maf-lineage5, Day 15",65.2 µM
same,susceptibility to direct inhibition,"[3]; Example 4, Maf-lineage5, concentrations up to 200 μM",more susceptible to direct inhibition
same,MIC,"[3]; Maf-lineage5, Day 11",59.5 µM
same,direct inhibition of growth,[3],not
same,susceptibility to direct inhibition,"[4]; Example 4, Mtb-lineage2, concentrations up to 200 μM",more susceptible to direct inhibition
same,direct inhibition of growth,[4],directly restricted the growth
same,MIC,"[4]; 240 h, Mtb-lineage2 (a), Day 10, read-out: MIC",56 µM
same,MIC,"[4]; 240 h, Mtb-lineage2 (b), Day 10, read-out: MIC",60.4 µM
same,MIC,"[4]; 240 h, Mtb-lineage2, Day 10, read-out: MIC",56 µM
same,MIC,"[4]; 288 h, Mtb-lineage2 (a), Day 12, read-out: MIC",56.7 µM
same,MIC,"[4]; 288 h, Mtb-lineage2 (b), Day 12, read-out: MIC",60.7 µM
same,MIC,"[4]; 288 h, Mtb-lineage2, Day 12, read-out: MIC",56.7 µM
same,MIC,"[4]; 312 h, Mtb-lineage2 (a), Day 13, read-out: MIC",57.1 µM
same,MIC,"[4]; 312 h, Mtb-lineage2 (b), Day 13, read-out: MIC",60.5 µM
same,MIC,"[4]; 312 h, Mtb-lineage2, Day 13, read-out: MIC",57.1 µM
same,MIC,"[4]; 336 h, Mtb-lineage2 (a), Day 14, read-out: MIC",57.4 µM
same,MIC,"[4]; 336 h, Mtb-lineage2 (b), Day 14, read-out: MIC",85.4 µM
same,MIC,"[4]; 336 h, Mtb-lineage2, Day 14, read-out: MIC",57.4 µM
same,MIC,"[4]; 360 h, Mtb-lineage2 (a), Day 15, read-out: MIC",57.8 µM
same,MIC,"[4]; 360 h, Mtb-lineage2 (b), Day 15, read-out: MIC",86.7 µM
same,MIC,"[4]; […], Mtb-lineage2 (a), Day 11, read-out: MIC",56.4 µM
same,MIC,"[4]; […], Mtb-lineage2 (b), Day 11, read-out: MIC",61 µM
same,MIC,"[4]; […], Mtb-lineage2, Day 11, read-out: MIC",56.4 µM
same,response to drug,[5],didn't respond
same,susceptibility to direct inhibition,"[5]; Example 4, Maf-lineage6 (c), concentrations up to 200 μM",more susceptible to direct inhibition
same,direct inhibition of growth,[5],not
same,MIC,"[5]; 240 h, Maf-lineage6 (a), Day 10",~0.743 µM
same,MIC,"[5]; 240 h, Maf-lineage6 (b), Day 10",~9090 µM
same,MIC,"[5]; 240 h, Maf-lineage6 (c), Day 10",101 µM
same,MIC,"[5]; 240 h, Maf-lineage6 (d), Day 10",~46400 µM
same,MIC,"[5]; 288 h, Maf-lineage6 (a), Day 12",~0.594 µM
same,MIC,"[5]; 288 h, Maf-lineage6 (b), Day 12",1460 µM
same,MIC,"[5]; 288 h, Maf-lineage6 (c), Day 12",100 µM
same,MIC,"[5]; 312 h, Maf-lineage6 (a), Day 13",~0.562 µM
same,MIC,"[5]; 312 h, Maf-lineage6 (b), Day 13",1260 µM
same,MIC,"[5]; 312 h, Maf-lineage6 (c), Day 13",100 µM
same,MIC,"[5]; 336 h, Maf-lineage6 (a), Day 14",~0.541 µM
same,MIC,"[5]; 336 h, Maf-lineage6 (b), Day 14",1520 µM
same,MIC,"[5]; 336 h, Maf-lineage6 (c), Day 14",100 µM
same,MIC,"[5]; 360 h, Maf-lineage6 (a), Day 15",~0.515 µM
same,MIC,"[5]; 360 h, Maf-lineage6 (b), Day 15",~3590 µM
same,MIC,"[5]; 360 h, Maf-lineage6 (c), Day 15",100 µM
same,MIC,"[5]; […], Maf-lineage6 (a), Day 11",~0.721 µM
same,MIC,"[5]; […], Maf-lineage6 (b), Day 11",~2390 µM
same,MIC,"[5]; […], Maf-lineage6 (c), Day 11",101 µM
COc1cc2ncnc(Nc3ccc(F)c(Cl)c3)c2cc1OCCCN1CCOCC1 [Gefitinib],MIC,[4]; 240 h,54.3 µM
same,MIC,[4]; 288 h,54.3 µM
same,MIC,[4]; 312 h,52.2 µM
same,MIC,[4]; 336 h,54.8 µM
same,MIC,[4]; […],52.7 µM
C#Cc1cccc(Nc2ncnc3cc(OCCOC)c(OCCOC)cc23)c1 [Erlotinib],direct inhibition of growth,[1],directly inhibit growth
same,direct inhibition of growth,[2],directly inhibit growth
same,direct inhibition of growth,[3],directly inhibit growth
same,direct inhibition of growth,[4],directly inhibit growth
same,IC50,"[4]; 360 h, Mtb-lineage2, Day 15",16.3 µM
same,MIC,"[4]; 360 h, Mtb-lineage2, Day 15, read-out: MIC",33 µM
same,IC50,"[4]; 384 h, Mtb-lineage2, Day 16",10.1 µM
same,MIC,"[4]; 384 h, Mtb-lineage2, Day 16, read-out: MIC",~1.07 µM
same,IC50,"[4]; 408 h, Mtb-lineage2, Day 17",8.65 µM
same,MIC,"[4]; 408 h, Mtb-lineage2, Day 17, read-out: MIC",41 µM
same,IC50,"[4]; 456 h, Mtb-lineage2, Day 19",6.79 µM
same,MIC,"[4]; 456 h, Mtb-lineage2, Day 19, read-out: MIC",49.4 µM
same,IC50,"[4]; 480 h, Mtb-lineage2, Day 20",6.19 µM
same,IC50,"[4]; […], Mtb-lineage2, Day 18",7.61 µM
same,MIC,"[4]; […], Mtb-lineage2, Day 18, read-out: MIC",43.6 µM
same,direct inhibition of growth,[5],directly inhibit growth
